The source made the active and inactive calls. No cut-off for these calls is given here.
How the values were obtained:
Mus musculus [1] = assay: Locomotor activity of the mice was determined at a dose of 50 ng/Kg after 30-45 min of intracerebroventricular (icv) injection; Significantly reduced; format: functional, organism-based
Mus musculus [2] = assay: Locomotor activity of the mice was determined at a dose of 50 ng/Kg after 45-60 min of intracerebroventricular (icv) injection; Significantly reduced; format: functional, organism-based

Compound	Activity (Mus musculus [1])	Activity (Mus musculus [2])
CC(=O)NCCc1c[nH]c2ccc(O)cc12	Active	Active
COc1ccc2[nH]cc(CCNC(C)=O)c2c1	Active	Active
CCCCCCCCCCCCCCCCOP(=O)(OCCOC1CC(O)C(O)C(CO)O1)Oc1ccc2[nH]cc(CCNC(C)=O)c2c1 (stereo unspecified)	Significantly reduced	Significantly reduced
